13 compounds from PubChem BioAssay AID1845215 (Molecular Pharmacology Branch, DTP, NCI, 2023) can be followed below.

The test relates to SW 1271 complex tumor spheroid viability. Kind of test: Anticancer human tumor SW 1271 cell line growth inhibition.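 On IC50: spheroids exposed to agents for seven days before readout.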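 On viability, T/C: spheroids exposed to agents for seven days before readout; percent of DMSO vehicle control luminescence so 100% = vehicle.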 Particulars: for viability, T/C: stronger effect = lower value. An excerpt:
Multicellular complex tumor spheroid response to DNA repair inhibitors in combination with DNA-damaging drugs
This study explores the anticancer activities of DNA-damaging drugs and inhibitors of DNA damage repair, both as single agents and in combinations. Complex tumor spheroids comprised of malignant cells, endothelial cells and mesenchymal stem cells served as an in vitro model for human solid tumors. This model system incorporates physiologically relevant features and patient-derived or established malignant cell lines with clinically relevant genetic alterations from many tumor types. Twenty-six patient-derived or established malignant cell lines were evaluated representing sarcoma, melanoma, small cell lung cancer (SCLC), non-small cell lung cancer (NSCLC), as well as bladder, ovarian and pancreatic cancers. The concentration ranges selected for each drug and investigational agent were based upon clinically achievable concentrations if the clinical Cmax of the agent was known.
Compounds. The drugs and compounds olaparib (NSC753686), talazoparib (NSC767125), berzosertib (NSC777718), elimusertib (NSC800525), nedisertib (NSC802822), VX-984 (NSC792969), AZD-1390 (NSC803789), temozolomide (NSC362856), topotecan (NSC609699), trabectedin (NSC813783), staurosporine (NSC755774), and gemcitabine (NSC613327) were obtained from the National Cancer Institute (NCI) Developmental Therapeutics Program Chemical Repository. The FDA-approved anticancer drug set is available from the Developmental Therapeutics Program at https://dtp.cancer.gov/organization/dscb/obtaining/available_plates.htm. […] The stock solutions were prepared in dimethyl sulfoxide (DMSO, Sigma-Aldrich, St. Louis, MO, cat. D2650) at 400-fold the tested concentration and stored at -70 degrees C. Prior to their use, the stock solutions were diluted in fresh medium and the final DMSO concentration in the assay was 0.25% (v/v). All drugs and investigational agents were tested over a range starting from a high concentration at or near the clinical Cmax and decreasing in half-log increments. If the clinical Cmax for an agent had not been determined, the highest concentration tested was 10 microM.
Cell Lines. The patient-derived cancer cell (PDC) lines: 156681-154-R-J1-PDC, 283228-195-R-J1-PDC, 287954-098-R-J1-PDC, 292921-168-R-J2-PDC, 349418-098-R-PDC, 425362-245-T-J1-PDC, 556581-035-R-J1-PDC, and BL0293-F563-PDC were received from the NCI Patient-Derived Models Repository (PDMR, https://pdmr.cancer.gov). The established cell lines HS-SY-2 (RRID:CVCL_8719), MPNST, and SYO-1 (RRID:CVCL_7146) were obtained from the Sloan Kettering Institute. The alveolar soft parts sarcoma cell line ASPS-1 (RRID:CVCL_S738) was established at the NCI and grown from internal seed stocks. The following established cell lines were purchased from the American Type Culture Collection (ATCC, Manassas, VA): G-401 (ATCC, cat. CRL-1441, RRID:CVCL_0270), SW982 (ATCC, cat. HTB-93, RRID:CVCL_1734), VA-ES-BJ (ATCC, cat. CRL-2138, RRID:CVCL_1785), NCI-H719 (ATCC, cat. CRL-5837, RRID:CVCL_1582), NCI-H196 (ATCC, cat. CRL-5823, RRID:CVCL_1509), NCI-H841 (ATCC, cat. CRL-5845, RRID:CVCL_1595), NCI-H1618 (ATCC, cat. CRL-5879, RRID:CVCL_1480), NCI-H1876 (ATCC, cat. CRL-5902, RRID:CVCL_1503), DMS 114 (ATCC, cat. CRL-2066; RRID:CVCL_1174), NCI-H211 (ATCC, cat. CRL-5824; RRID:CVCL_1529), and SW 1271 (ATCC, cat. CRL-2177, RRID:CVCL_1716). The small cell lung cancer cell line COR-L88 was purchased from Sigma-Aldrich (cat. 92031917-1VL, RRID:CVCL_1141). The non-small cell lung cancer cell lines NCI-H226 (RRID:CVCL_1544) and NCI-H322M (RRID:CVCL_1557) were established at the NCI and grown from internal seed stocks. Pooled donor human umbilical vein endothelial cells (HUVEC, Lonza, cat. CC-2519) and human mesenchymal stem cells (hMSC, Lonza, cat. PT-2501) were purchased from Lonza (Walkersville, MD).
Cell Culture. All cells were maintained in an incubator at 37 degrees C and 5% CO2 with 95% humidity. […]

[1] abbreviates: compound alone, run of 11/07/2019.
Setting [2] is: compound alone, run of 12/16/2019.

The term viability, T/C denotes the ratio of treated to control. Broadly, the IC50 is the concentration at which inhibition is half-maximal.

Several values for one entry are separate records, joined by “and”; a condition that tells them apart may be missing. Equal entries are not always repeated. Activity calls are given as the source filed them. How the source made its calls: active means viability on the fitted dose curve at most 10% of control; inactive means the rest.

`CC(C)n1c(=O)n(C)c2cnc3cc(F)c(-c4ccc(OCCCN5CCCCC5)nc4)cc3c21`: the viability, T/C was 94.1% and 98.9% and 79.6% (compound 0.0316 µM); 86.3% and 78.7% (compound 0.1 µM); 92.8% and 94.3% and 72.7% (compound 0.316 µM); 94.6% and 83.5% and 71.3% (compound 1 µM); 86.3% and 70.8% and 59.2% (compound 3.16 µM); 60.3% and 48.2% and 20.9% (compound 10 µM). The result (compound 0.1 µM) was inactive. The IC50 (curve of compound) is > 10000 nM and 9160 nM and 4080 nM.
As to `CC1COCCN1c1cc(-c2ccnn2C)c2ccnc(-c3ccn[nH]3)c2n1` (configuration not stated), the viability, T/C was 76.6% and 87.1% and 78.6% (compound 0.0316 µM); 50.5% and 44.6% and 58.8% (compound 0.1 µM); 25.2% and 31.1% and 21.6% (compound 0.316 µM); 4.08% and 5.26% and 4.1% (compound 1 µM); 2.44% and 3.8% and 2.04% (compound 3.16 µM); 2.18% and 3.01% and 1.85% (compound 10 µM). Where the note is “curve of compound”, the IC50 is 107 nM and 93.4 nM and 131 nM.
In the case of `CC[C@@]1(O)C(=O)OCc2c1cc1n(c2=O)Cc2cc3c(CN(C)C)c(O)ccc3nc2-1`, the viability, T/C runs as follows: (compound 0.003 µM) 88.3% [middle of 10 runs]; (compound 0.03 µM) 28.2% [middle of 10 runs]; (compound 0.0949 µM) 27.2% [middle of 10 runs]; (compound 0.3 µM) 16.7% [middle of 10 runs]. Further, the IC50 runs as follows: under setting [1], 8.96 nM [middle of 5 runs]; under setting [2], 11.7 nM [middle of 5 runs].
`CNCc1ccc(-c2cc(-c3nc(-c4ccc(S(=O)(=O)C(C)C)cc4)cnc3N)on2)cc1`: the viability, T/C reads like this: (compound 0.00949 µM) 105% and 99.4% and 104%; (compound 0.03 µM) 103% and 101% and 109%; (compound 0.0949 µM) 92% and 70.1% and 88.4%; (compound 0.3 µM) 26.4% and 24.2% and 45.3%; (compound 0.949 µM) 6.64% and 6.62% and 10.9%; (compound 3 µM) 0.13% and 0.12% and 0.2%. In addition, the IC50 (curve of compound) was 199 nM and 159 nM and 266 nM.
`COc1cc(C)[nH]c(=O)c1CN1CCc2c(Cl)cc(C(OC)C3COC3)c(Cl)c2C1=O` (configuration not stated): the viability, T/C is, setting by setting: (compound 0.0316 µM) 98.5% and 98.1% and 104%; (compound 0.1 µM) 101% and 92.7% and 98.5%; (compound 0.316 µM) 102% and 86.8% and 91.5%; (compound 1 µM) 105% and 89.8% and 94.6%; (compound 3.16 µM) 94.8% and 79.1% and 95.3%; (compound 10 µM) 84% and 75.4% and 81.9%. For the same compound, the IC50 (curve of compound) was greater than 10000 nM.
Turning to `COc1cc2c(cc1O)CCNC21CSC2c3c(OC(C)=O)c(C)c4c(c3C(COC1=O)N1C(O)C3Cc5cc(C)c(OC)c(O)c5C(C21)N3C)OCO4` (configuration not stated), the viability, T/C by setting is: (compound 30 pM) 89.8% [middle of 10 runs]; (compound 94.9 pM) 64.2% [middle of 10 runs]; (compound 0.0003 µM) 34.4% [middle of 10 runs]; (compound 0.000949 µM) 3.63% [middle of 10 runs]; (compound 0.003 µM) 0.11% [middle of 6 runs]. Further, the IC50 under setting [2] was 0.156 nM [middle of 10 runs].
Turning to `COc1ccc([C@@H](O)c2cc(-c3ncnc4cc(N5CCOCC5)ccc34)c(F)cc2Cl)nn1`, the viability, T/C (compound 0.0316 µM) was 92.9% and 91.6% and 101%; the viability, T/C (compound 0.1 µM) was 93.1% and 83% and 92.6%; the viability, T/C (compound 0.316 µM) is 92.8% and 78.7% and 83.9%; the viability, T/C (compound 1 µM) is 77.2% and 72.9%; the viability, T/C (compound 3.16 µM) is 44.9% and 38.3% and 44%; the viability, T/C (compound 10 µM) is 8.13% and 13.3% and 6.11%. Moreover, under “compound 1 µM”, the result was inactive. Besides, the IC50 (curve of compound) was 2630 nM and 1790 nM and 2520 nM.
On to `Cc1cc(C)c(CNC(=O)c2cc(-c3ccc(CN4CCOCC4)cc3)cc3c2cnn3C2CCCC2)c(=O)[nH]1`, for which the viability, T/C by setting is: (compound 0.0316 µM) 99.2% and 98.8% and 97.6%; (compound 0.1 µM) 95.9% and 99.6% and 92.9%; (compound 0.316 µM) 96.5% and 95.6% and 98.5%; (compound 1 µM) 94.5% and 91.5% and 91.4%; (compound 3.16 µM) 98.9% and 85.2% and 85.7%; (compound 10 µM) 85.4% and 73% and 66.3%. Besides, for the setting “curve of compound”, the IC50 was greater than 10000 nM.
On to `Cc1sc2c(c1C)C(c1ccc(Cl)cc1)=NC(CC(=O)Nc1ccc(O)cc1)c1nnc(C)n1-2` (configuration not stated), for which the viability, T/C reads like this: (compound 0.00949 µM) 112% and 133% and 111%; (compound 0.03 µM) 98.6% and 108% and 112%; (compound 0.0949 µM) 38.7% and 40.3% and 67.7%; (compound 0.3 µM) 4.84% and 5.32% and 10.5%; (compound 0.949 µM) 1.98% and 1.57% and 1.36%; (compound 3 µM) 1.53% and 0.84% and 1.11%. For the same compound, the IC50 (curve of compound) is 76.2 nM and 80.2 nM and 136 nM.
`Cn1ncnc1[C@H]1c2n[nH]c(=O)c3cc(F)cc(c23)N[C@@H]1c1ccc(F)cc1`: the viability, T/C runs as follows: (compound 0.00949 µM) 39.3% and 40% and 67.2%; (compound 0.03 µM) 31.9% and 32.7% and 44.5%; (compound 0.0949 µM) 21.2% and 24.7% and 35.2%; (compound 0.3 µM) 24.9% and 26.4% and 34.4%; (compound 0.949 µM) 25.2% and 26.3% and 30.4%; (compound 3 µM) 21.1% and 25.1% and 26.3%. Where the note is “curve of compound”, the IC50 was < 9.49 nM and 23.5 nM.
For `Cn1nnc2c(C(N)=O)ncn2c1=O`, the viability, T/C by setting is: (compound 1 µM) 97% [middle of 10 runs]; (compound 3.16 µM) 103% [middle of 10 runs]. The IC50 under setting [1] is > 100000 nM and 20700 nM.
In the case of `O=C(c1cc(Cc2n[nH]c(=O)c3ccccc23)ccc1F)N1CCN(C(=O)C2CC2)CC1`, the viability, T/C by setting is: (compound 0.0949 µM) 91.1% and 93% and 93.6%; (compound 0.3 µM) 77.1% and 81.2% and 80.7%; (compound 0.949 µM) 77% and 74.6% and 75.7%; (compound 3 µM) 41% and 45.6% and 42.4%; (compound 9.49 µM) 29.3% and 28.4% and 28.2%; (compound 30 µM) 24.2% (2×) and 16.6%. For the setting “curve of compound”, the IC50 was 2270 nM and 2550 nM and 2470 nM.
On to `[2H]c1nc(C)nc([2H])c1-c1cc(NC[C@@H](C)c2cccc3c(C(=O)NC)ccnc23)ncn1`, for which the viability, T/C runs as follows: (compound 0.0316 µM) 96.9% and 105% and 108%; (compound 0.1 µM) 98.7% and 104% and 106%; (compound 0.316 µM) 101% and 95.6% and 96.8%; (compound 1 µM) 104% (2×) and 99.2%; (compound 3.16 µM) 98% and 96.2% and 104%; (compound 10 µM) 90.8% and 102% and 96.7%. In addition, for the setting “curve of compound”, the IC50 was greater than 10000 nM.
